# Measured values from paper PMC12163485 (Drug Metabolism and Disposition, 2025).
# Several values for one entry are separate records, joined by “and”; a condition that tells them apart may be missing. Equal entries are not always repeated. Where two headings read alike, the source gives them in different places.
# Tests used:
# [1] = target: T1, mouse OCT1 (Mus musculus, UniProt O08966); assay: Uptake of the cocktail by HEK293 cells overexpressing mouse Oct1
# T1 sequence (O08966 1-556): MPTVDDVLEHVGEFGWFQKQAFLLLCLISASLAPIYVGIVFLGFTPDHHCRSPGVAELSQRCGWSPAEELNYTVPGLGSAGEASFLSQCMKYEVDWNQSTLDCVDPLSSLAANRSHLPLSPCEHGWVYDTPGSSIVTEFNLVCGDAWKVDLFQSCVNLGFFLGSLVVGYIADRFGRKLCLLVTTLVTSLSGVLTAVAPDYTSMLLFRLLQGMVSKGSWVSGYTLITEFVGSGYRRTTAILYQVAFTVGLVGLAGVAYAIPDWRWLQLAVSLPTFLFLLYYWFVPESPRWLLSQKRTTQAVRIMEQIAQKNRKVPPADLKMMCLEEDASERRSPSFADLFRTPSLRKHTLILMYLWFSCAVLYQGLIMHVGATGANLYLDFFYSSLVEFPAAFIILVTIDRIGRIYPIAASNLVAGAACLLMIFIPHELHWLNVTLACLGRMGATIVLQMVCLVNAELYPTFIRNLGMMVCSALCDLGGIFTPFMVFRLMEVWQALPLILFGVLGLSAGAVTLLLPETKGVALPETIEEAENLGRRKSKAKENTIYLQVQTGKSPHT
# Experimental: (§1) Significance was calculated using Mann–Whitney U test. n = 5–8 independent experiments.
# [2] = Pharmacokinetic parameters used for estimating the potential for DDIs; format: in vivo, human; details: human; for k el: po
# Experimental: Ka was calculated manually based on available pharmacokinetic parameters.
# [3] = target: T2, human MATE1 (hMATE1) (Homo sapiens, UniProt Q96FL8); assay: Uptake of the extended cocktail by HEK293 cells overexpressing hMATE1; format: in vitro ADME; details: Fig. 6, uptake 1 minute after NH4Cl preincubation
# T2 sequence (Q96FL8 1-570): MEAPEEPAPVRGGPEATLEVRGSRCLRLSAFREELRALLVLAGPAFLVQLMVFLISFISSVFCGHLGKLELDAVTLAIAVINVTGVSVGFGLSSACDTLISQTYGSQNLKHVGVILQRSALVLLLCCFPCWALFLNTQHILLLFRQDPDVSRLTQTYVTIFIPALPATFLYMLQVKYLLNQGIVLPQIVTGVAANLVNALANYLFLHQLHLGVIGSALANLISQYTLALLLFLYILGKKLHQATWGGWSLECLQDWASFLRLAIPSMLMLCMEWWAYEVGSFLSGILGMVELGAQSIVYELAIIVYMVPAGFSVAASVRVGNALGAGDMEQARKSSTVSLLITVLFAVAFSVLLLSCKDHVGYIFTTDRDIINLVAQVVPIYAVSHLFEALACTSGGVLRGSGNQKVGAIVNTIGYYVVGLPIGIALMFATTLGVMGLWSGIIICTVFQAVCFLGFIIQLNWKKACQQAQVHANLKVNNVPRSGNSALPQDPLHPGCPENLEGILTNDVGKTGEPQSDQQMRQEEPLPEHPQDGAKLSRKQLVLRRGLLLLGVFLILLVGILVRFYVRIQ
# [4] = target: human MATE2K (hMATE2K) (Homo sapiens, UniProt Q86VL8); assay: Uptake of the extended cocktail by HEK293 cells overexpressing hMATE2K; format: in vitro ADME; details: Fig. 6, uptake 1 minute after NH4Cl preincubation
# [5] = target: T3, OCT1 (Homo sapiens, UniProt O15245)
# T3 sequence (O15245 1-554): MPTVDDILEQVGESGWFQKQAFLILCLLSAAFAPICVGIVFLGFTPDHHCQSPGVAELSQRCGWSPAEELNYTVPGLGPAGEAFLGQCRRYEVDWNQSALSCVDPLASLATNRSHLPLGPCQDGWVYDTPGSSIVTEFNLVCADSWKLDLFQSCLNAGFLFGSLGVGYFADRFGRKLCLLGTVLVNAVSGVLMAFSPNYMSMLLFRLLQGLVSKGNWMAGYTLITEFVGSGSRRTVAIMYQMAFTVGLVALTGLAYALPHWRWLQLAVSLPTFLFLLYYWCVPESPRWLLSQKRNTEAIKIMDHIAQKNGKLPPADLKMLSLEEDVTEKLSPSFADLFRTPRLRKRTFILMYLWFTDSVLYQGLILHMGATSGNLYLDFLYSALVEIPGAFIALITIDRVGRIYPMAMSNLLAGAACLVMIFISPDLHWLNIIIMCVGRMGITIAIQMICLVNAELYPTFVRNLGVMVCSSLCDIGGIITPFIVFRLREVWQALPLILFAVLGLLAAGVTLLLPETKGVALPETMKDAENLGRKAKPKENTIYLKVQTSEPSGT
# Experimental: (§2) Ka was calculated manually based on available pharmacokinetic parameters. Qh was set to 97 L/h and Fa was assumed as 1.
# [6] = test system: mOct1; set-up: method as in ref column References of Table 2 (Morse et al, 2020; Jensen et al, 2020; Meyer et al, 2022); details: literature values; References of Table 2 (Morse et al, 2020; Jensen et al, 2020; Meyer et al, 2022); cited from earlier work
# [7] = cited from earlier work; for cmax = Imax: dose and route as in Supplemental Table 4, ref Hardman, 2018, fenoterol Tzvetkov et al; for cmax = Imax / fraction unbound: ipratropium Zhang et al, 2023; for fraction unbound: fraction unbound in plasma, ref Hardman, 2018, Lombardo et al (2018), fenoterol Tzvetkov et al; for tmax: p.o., ref Hardman, 2018
# [8] = target: T3, OCT1; assay: DDI risk R calculated from IC50 at human OCT1; details: R=1+fup×Iin,max/IC50, cutoff R ≥ 1.1
# Experimental: as §2
# [9] = target: T4, human OCT1 (hOCT1) (Homo sapiens, UniProt O15245); assay: Transport kinetics (KM, vmax) of OCT1-mediated uptake, HEK293 cells overexpressing human OCT1; format: in vitro ADME; set-up: expressed in transfected cells; empty vector control pcDNA5; details: mean ± SD; for vmax: hOCT1; for Km at 2 min: human, HEK293 cells stably overexpressing human OCT1, pH 7.4, hOCT1
# T4 sequence (O15245 1-554): T3 sequence (O15245 1-554)
# Experimental: To validate the cocktail, we analyzed whether the combination of all substrates in a cocktail affected their individual transport kinetics in terms of KM and vmax. […] To measure the transport kinetics for a single substrate in the cocktail, we increased the concentration of 1 substrate while keeping the concentrations of the other substrates in the cocktail constant. The resulting KM and vmax values were compared with those obtained when each substrate was tested alone (Fig. 2; Supplemental Table 5).
# [10] = target: T4, human OCT1 (hOCT1); set-up: expressed in transfected cells; empty vector control pcDNA5; method as in ref column References of Table 2 (Tzvetkov et al, 2018; Morse et al, 2020; Jensen et al, 2020; Meyer et al, 2019, 2022; Wittern et al, 2024 and own unpublished data; Elsby et al, 2017); details: literature values; References of Table 2 (Tzvetkov et al, 2018; Morse et al, 2020; Jensen et al, 2020; Meyer et al, 2019, 2022; Wittern et al, 2024 and own unpublished data; Elsby et al, 2017); cited from earlier work
# [11] = target: T3, OCT1; assay: Uptake of the cocktail by HEK293 cells overexpressing human OCT1; details: cocktail
# Experimental: as §1
# [12] = target: T4, human OCT1 (hOCT1)
# Experimental: (§3) The kinetic transport parameters KM and vmax as well as the half-maximal inhibitory concentration (IC50) were calculated using GraphPad Prism version 8.0.2 (GraphPad Software, Inc). KM and vmax were calculated using nonlinear regression to the Michaelis-Menten equation.
# [13] = test system: OCT1; details: ref Tzvetkov et al, 2018 (fenoterol); Matthaei et al, 2016 (sumatriptan); cited from earlier work
# [14] = target: T4, human OCT1 (hOCT1); assay: Inhibition of OCT1-mediated uptake of the cocktail substrates in HEK293 cells overexpressing human OCT1; details: human OCT1, mean ± SD
# Experimental: as §3
# [15] = fold change to the negative control, n = 12
# Sequence of human MATE2K (hMATE2K) (Q86VL8 1-566 isoform Q86VL8-3): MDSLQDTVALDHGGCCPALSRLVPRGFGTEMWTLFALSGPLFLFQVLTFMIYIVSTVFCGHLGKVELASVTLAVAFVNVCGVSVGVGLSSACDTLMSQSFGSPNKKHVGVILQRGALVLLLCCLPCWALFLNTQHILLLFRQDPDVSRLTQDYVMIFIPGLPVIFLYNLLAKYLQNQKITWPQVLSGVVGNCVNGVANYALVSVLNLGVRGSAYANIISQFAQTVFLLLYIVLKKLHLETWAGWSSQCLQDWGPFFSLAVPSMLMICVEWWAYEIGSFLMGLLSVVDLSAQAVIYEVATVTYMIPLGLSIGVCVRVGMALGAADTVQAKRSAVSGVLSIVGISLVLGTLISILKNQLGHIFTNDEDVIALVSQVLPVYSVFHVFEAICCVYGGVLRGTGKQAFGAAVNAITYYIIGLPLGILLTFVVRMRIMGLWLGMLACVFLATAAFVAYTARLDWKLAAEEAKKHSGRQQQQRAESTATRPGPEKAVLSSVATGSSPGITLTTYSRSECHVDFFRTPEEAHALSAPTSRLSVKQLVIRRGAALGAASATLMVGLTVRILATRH
Structure (SMILES),"I max, portal, u ([2]; in vivo)","Imax, portal ([2]; in vivo)",transport by MATE1 [3],transport by MATE2K [4],"DDI risk R, victim drug trospium [5]",Km [6],cmax = Imax [7],fraction unbound [7],tmax [7],"DDI risk R, victim drug fenoterol [8]","DDI risk R, victim drug ipratropium [8]","DDI risk R, victim drug methylnaltrexone [8]","DDI risk R, victim drug salbutamol [8]","DDI risk R, victim drug zolmitriptan [8]",Km [10],also measured
"CN(C)C(=N)N=C(N)N [Metformin, metformin]",39.48 µM,5100 ng/mL,by far the strongest transport activity,by far the strongest transport activity,1.00,491 µM,1600 ng/mL,1,1.90 h,1.00,1.01,1.01,1.00,1.00,3030 µM,"uptake stronger in mouse than in human OCT1 ([1]; ratio mouse/human): 5.1 fold; k el ([2]; in vivo): 0.000111 s⁻¹; DDI risk R, victim drug sumatriptan [8]: 1.01; vmax ([9]; substrate tested alone): 6999 ± 2065 pmol x min^-1 x mg protein^-1; vmax ([9]; substrate tested in cocktail): 5251 ± 1311 pmol x min^-1 x mg protein^-1; Km at 2 min ([9]; substrate tested alone): 1380 ± 512 µM; Km at 2 min ([9]; substrate tested in cocktail): 2000 ± 338 µM"
"CNS(=O)(=O)Cc1ccc2[nH]cc(CCN(C)C)c2c1 [Sumatriptan, sumatriptan]",1.91 µM,714.8 ng/mL,by far the strongest transport activity,by far the strongest transport activity,1.01,65.7 µM,54 ng/mL,0.79,1.50 h,1.00,1.01,1.00,1.00,1.00,55.8 µM,"human OCT1 uptake [fold change to pcDNA5] [11, 15]: 15.3 fold change to pcDNA5; uptake stronger in human than in mouse OCT1 ([11]; ratio human/mouse): 2 fold; mouse Oct1 uptake [fold change to pcDNA5] [1, 15]: 7.8 fold change to pcDNA5; ka ([2]; in vivo): 0.64 h⁻¹; k el ([2]; plasma, read-out: ke (converted)): 0.000192 s⁻¹; IC50 [12]: 604 µM and 628 µM; increase in systemic exposure in individuals homozygous for OCT1 loss-of-function genetic variants [13]: 2 fold; t1/2 ([7]; ref Hardman, 2018, fenoterol Tzvetkov et al): 1.00 h; DDI risk R, victim drug metformin [8]: 1.00; IC50 ([14]; IC50 for inhibition of fenoterol uptake, substrate (victim) fenoterol 0.5 μM in cocktail): 482 ± 42.9 µM; IC50 ([14]; IC50 for inhibition of ipratropium uptake, substrate (victim) ipratropium 0.5 μM in cocktail): 207 µM; IC50 ([14]; IC50 for inhibition of methylnaltrexone uptake, substrate (victim) methylnaltrexone 1 μM in cocktail): 448 ± 40.9 µM; IC50 ([14]; IC50 for inhibition of trospium uptake, substrate (victim) trospium 0.1 μM in cocktail): 270 ± 42.6 µM; IC50 ([14]; IC50 for inhibition of zolmitriptan uptake, substrate (victim) zolmitriptan 0.5 μM in cocktail): 506 ± 36.2 µM"
